This is an account of results in PubChem BioAssay (NCI).

Where “and” joins values, the source holds several entries; their conditions need not be identical. Equal values may be shown once.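 Results reflect a 48-hour exposure of cells in 96-well plates to compound at five concentrations. At the GI50, growth is halved. TGI is the concentration that stops growth completely.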

Some test systems named below: NCI/ADR-RES ovarian; M14 melanoma; A549 NSCLC; IGROV1 ovarian; OVCAR-4 ovarian; UACC-257 melanoma; PC-3 prostate; OVCAR-3 ovarian; CCRF-CEM leukemia; HT29 colon.
What all share (test): DTP human tumour cell line panel, 48 h

What is called GI50 is the concentration that inhibits growth by half. By TGI is commonly meant the concentration giving total growth inhibition. Read a low TGI as greater sensitivity of the cells. For the molecule `O=C1Nc2ccc(I)cc2/C1=C/c1cc(Br)c(O)c(Br)c1`, the GI50 with NCI/ADR-RES ovarian was > 21.8 µM and 28.2 µM; with M14 melanoma, 10.8 µM and 5.03 µM; with A549 NSCLC, > 24.2 µM and 22.7 µM; in the assay with IGROV1 ovarian it was > 25 µM and 27.8 µM; in the assay on OVCAR-4 ovarian it was 24.8 µM and 23.3 µM; with UACC-257 melanoma, > 20.7 µM and 16.5 µM. Moreover, the GI50 in the assay with PC-3 prostate is > 17.7 µM and 23.3 µM; in the assay on OVCAR-3 ovarian, > 12.5 µM and 16.7 µM; in the assay with CCRF-CEM leukemia it was > 18.5 µM and 6.24 µM; with HT29 colon, > 20.6 µM and 13.5 µM. Moreover, the TGI with NCI/ADR-RES ovarian is > 100 µM; in the assay on M14 melanoma, > 25 µM and 72.1 µM; with A549 NSCLC, > 25 µM and 97 µM; with IGROV1 ovarian it was > 75.5 µM; in the assay on OVCAR-4 ovarian, > 100 µM; with UACC-257 melanoma, > 25 µM and 69.2 µM. The total growth inhibition concentration (TGI) in the assay with PC-3 prostate was > 74.7 µM; with OVCAR-3 ovarian, > 20.6 µM and 36.9 µM; in the assay with CCRF-CEM leukemia, > 25 µM and 51.3 µM; in the assay with HT29 colon, > 25 µM and 52.5 µM.
For `Nc1c2ccccc2nc2ccccc12`, the GI50 with NCI/ADR-RES ovarian is 1.44 µM and 1.48 µM; with M14 melanoma, 1.7 µM and 3.21 µM; in the assay on A549 NSCLC, 1.52 µM and 2.87 µM; in the assay on IGROV1 ovarian it was 2.12 µM and 3.34 µM; with OVCAR-4 ovarian, 1.02 µM and 2.69 µM; with UACC-257 melanoma it was 1.54 µM and 3.21 µM. Besides, the GI50 with PC-3 prostate is 2.24 µM and 3.13 µM; with OVCAR-3 ovarian, 2.2 µM and 2.91 µM; with CCRF-CEM leukemia it was 1.69 µM and 2.3 µM; with HT29 colon it was 0.98 µM and 1.94 µM. The TGI with NCI/ADR-RES ovarian is 5.35 µM and 6.21 µM; in the assay on M14 melanoma, 3.48 µM and 10 µM; in the assay with A549 NSCLC it was 3.94 µM and 8.81 µM; with IGROV1 ovarian it was 6.18 µM and 14 µM; in the assay with OVCAR-4 ovarian, 6.38 µM and 7.3 µM; in the assay on UACC-257 melanoma, 3.06 µM and 10.1 µM. Besides, the concentration for total growth inhibition (TGI) in the assay with PC-3 prostate was 9.38 µM and 15.9 µM; in the assay on OVCAR-3 ovarian it was 6.77 µM and 8.91 µM; in the assay on CCRF-CEM leukemia, 7.27 µM and 65.4 µM; in the assay with HT29 colon, 3.23 µM and 7.34 µM.
Turning to `Nc1ncnc2c1ncn2C1SC(CO)C(O)C1O` (stereo not given), the GI50 in the assay with NCI/ADR-RES ovarian is 13.5 µM; in the assay with M14 melanoma, 21 µM; in the assay with A549 NSCLC, 26.6 µM; in the assay with IGROV1 ovarian it was > 100 µM; with OVCAR-4 ovarian it was 34.6 µM; in the assay on UACC-257 melanoma, > 100 µM. Further, the GI50 in the assay with PC-3 prostate was 3.72 µM; with OVCAR-3 ovarian it was 24.5 µM; in the assay on CCRF-CEM leukemia, > 100 µM; in the assay with HT29 colon, 10.7 µM. Besides, the concentration for total growth inhibition (TGI) was 52.1 µM with NCI/ADR-RES ovarian; 55.6 µM with M14 melanoma; 73.4 µM in the assay with A549 NSCLC; > 100 µM in the assay with IGROV1 ovarian; > 100 µM with OVCAR-4 ovarian; > 100 µM with UACC-257 melanoma. Also, the TGI in the assay with PC-3 prostate is 33.1 µM; in the assay with OVCAR-3 ovarian it was 58.3 µM; with CCRF-CEM leukemia it was > 100 µM; with HT29 colon, 42.4 µM.
For the molecule `COc1cccc(-c2cc(-c3ccc(Nc4nc(Nc5ccc(Cl)cc5)nc(Nc5ccc(Cl)cc5)n4)cc3)nc(N)c2C#N)c1`, the GI50 was 14.7 µM in the assay with NCI/ADR-RES ovarian; 2.5 µM in the assay with M14 melanoma; 9.41 µM with A549 NSCLC; 1.67 µM in the assay with IGROV1 ovarian; 4.09 µM in the assay with OVCAR-4 ovarian; 2.03 µM in the assay with UACC-257 melanoma. In addition, the GI50 in the assay with PC-3 prostate is 2.01 µM; with OVCAR-3 ovarian, 1.73 µM; with CCRF-CEM leukemia it was 1.91 µM; in the assay with HT29 colon it was 3.96 µM. For the same molecule, the total growth inhibition concentration (TGI) in the assay with NCI/ADR-RES ovarian is > 100 µM; in the assay with M14 melanoma, 7.12 µM; in the assay with A549 NSCLC, > 100 µM; in the assay on IGROV1 ovarian, 4.62 µM; in the assay with OVCAR-4 ovarian, > 100 µM; in the assay on UACC-257 melanoma, 4.8 µM. The concentration for total growth inhibition (TGI) is 12 µM in the assay with PC-3 prostate, 3.53 µM with OVCAR-3 ovarian, 11.5 µM in the assay on CCRF-CEM leukemia and 35.8 µM with HT29 colon.
